Laboratory results from US10307413B2, “Tetrahydro- and dihydro-isoquinoline PRMT5 inhibitors and uses thereof” (Epizyme, Inc., priority 2013, dated 2019).
pEC50: −log10 of the molar value.

What was measured:
[1] = system: symmetric di-methyl arginine in Z-138 cells; assay: Z-138 Methylation Assay (In Cell Western for symmetric di-methyl arginine and DNA content); type: cell-based; conditions: Homo sapiens, read-out: ICW EC50
Outline: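 In-cell western: symmetric di-methyl arginine signal ratioed to DRAQ5 DNA content after 96 h compound exposure of Z-138 cells seeded at 50,000 cells/mL.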

Z-138 cell line = assay: Z-138 Proliferation Assay (Cell Titer Glo, 5 days); type: cell-based; conditions: Homo sapiens, 120 h; Z-138 cells, 5 days; read-out: Proliferation EC50
Outline: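 Viability via CellTiter-Glo luminescence (ATP) after 5-day incubation at 37 °C, 5% CO2. Compounds tested in triplicate, nine 3-fold steps, highest final concentration 20 μM in 0.2% DMSO; 50% inhibitory concentration by 4-parameter fit of normalized curves.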

Row | pEC50 [1] | SMILES | pEC50 (Z-138 cell line)
1 | > 7.00 | CC(=O)N1CCC(Nc2cc(C(=O)NC[C@H](O)CN3CCc4ccccc4C3)ccn2)C1 (stereo partly drawn) [Compound 228] | 6.00 to 7.00
2 | > 7.00 | O=C(NC[C@H](O)CN1CCc2ccccc2C1)c1ccnc(NC2CCN(CC(F)(F)F)CC2)c1 [Compound 224] | 6.00 to 7.00
3 | > 7.00 | O=C(NCC(O)CN1CCc2ccccc2C1)c1cccc(NC2CCOCC2)c1 (stereo not drawn) [Compound 16, N-(3-(3,4-dihydroisoquinolin-2(1H)-yl)-2-hydroxypropyl)-3-((tetrahydro-2H-pyran-4-yl)amino)benzamide] | 6.00 to 7.00
4 | 6.00 to 7.00 | COc1ccc(C(=O)NCC(O)CN2CCc3ccccc3C2)cc1NC1CCOCC1 (stereo not drawn) [Compound 67] | 4.30 to 5.00
5 | 6.00 to 7.00 | O=C(NCC(O)CN1CCc2ccccc2C1)c1cc(NC2CCOCC2)n[nH]1 (stereo not drawn) [Compound 169] | 5.00 to 6.00
6 | 6.00 to 7.00 | O=C(NC[C@H](O)CN1CCc2ccccc2C1)c1ccc2c(c1)OCO2 [Compound 244] | 5.00 to 6.00
7 | > 7.00 | COc1ccc2oc(C(=O)NC[C@H](O)CN3CCc4ccccc4C3)cc2c1 [Compound 250] | 5.00 to 6.00
8 | 6.00 to 7.00 | O=C(NCC(O)CN1CCc2ccccc2C1)c1cccc(-c2cc[nH]n2)c1 (stereo not drawn) [Compound 10] | 5.00 to 6.00
9 | 6.00 to 7.00 | CN1CCC(c2cccc(C(=O)NCC(O)CN3CCc4ccccc4C3)c2)C1 (stereo not drawn) [Compound 38, N-(3-(3,4-dihydroisoquinolin-2(1H)-yl)-2-hydroxypropyl)-3-(1-methylpyrrolidin-3-yl)benzamide] | 4.30 to 5.00
10 | > 7.00 | CN(c1ccc(C(=O)NCC(O)CN2CCc3ccccc3C2)cc1)C1CCOC1 (stereo not drawn) [Compound 144] | 5.00 to 6.00
11 | 6.00 to 7.00 | O=C(NC[C@@H](O)CN1CCc2ccccc2C1)c1ccc2ncccc2c1 [Compound 218] | 4.30 to 5.00
12 | 6.00 to 7.00 | O=C(NC[C@@H](O)CN1CCc2ccccc2C1)c1cc(NC2COC2)ncn1 [Compound 336] | 4.30 to 5.00
13 | 6.00 to 7.00 | O=C(NC[C@@H](O)CN1CCc2ccccc2C1)c1cccc(NC2CCOCC2)c1 [Compound 43] | 5.00 to 6.00
14 | > 7.00 | O=C(NC[C@H](O)CN1CCc2ccccc2C1)c1ccnc(NCc2ccccn2)c1 [Compound 191] | 6.00 to 7.00
15 | > 7.00 | CC(=O)N1CCC(Nc2ccc(C(=O)NCC(O)CN3CCc4ccccc4C3)cc2)CC1 (stereo not drawn) [Compound 127] | 5.00 to 6.00
16 | 6.00 to 7.00 | CCN1CCN(Cc2cccc(C(=O)NCC(O)CN3CCc4ccccc4C3)c2)CC1 (stereo not drawn) [Compound 90] | 4.30 to 5.00
17 | 6.00 to 7.00 | O=C(NC[C@H](O)CN1CCc2ccccc2C1)c1ccc2cc(O)ccc2c1 [Compound 318] | 5.00 to 6.00
18 | > 7.00 | CC(=O)N1CCC(Nc2cccc(C(=O)NCC(O)CN3CCc4ccccc4C3)c2)CC1 (stereo not drawn) [Compound 124] | > 7.00
19 | > 7.00 | CC(C)N1CCC(Oc2cccc(C(=O)NCC(O)CN3CCc4ccccc4C3)c2)C1 (stereo not drawn) [Compound 135] | 4.30 to 5.00
20 | 6.00 to 7.00 | CN1CCN(c2cccc(C(=O)NCC(O)CN3CCc4ccccc4C3)c2)CC1 (stereo not drawn) [Compound 36] | 4.30 to 5.00
21 | > 7.00 | CS(=O)(=O)N1CCC(Nc2cc(C(=O)NC[C@H](O)CN3CCc4ccccc4C3)ccn2)C1 (stereo partly drawn) [Compound 227] | 6.00 to 7.00
22 | 6.00 to 7.00 | O=C(NCC(O)CN1CCc2ccccc2C1)c1cccc(N2CCNCC2)c1 (stereo not drawn) [Compound 35, N-(3-(3,4-dihydroisoquinolin-2(1H)-yl)-2-hydroxypropyl)-3-(piperazin-1-yl)benzamide] | 4.30 to 5.00
23 | > 7.00 | O=C(NC[C@H](O)CN1CCc2ccccc2C1)c1ccnc(NC2CCCCC2)c1 [Compound 335] | > 7.00

Row | pEC50 [1] | SMILES | pEC50 (Z-138 cell line)
24 | > 7.00 | O=C(NC[C@H](O)CN1CCc2ccccc2C1)c1ccnc(NC2CCN(CC(F)(F)F)C2)c1 (stereo partly drawn) [Compound 226] | 6.00 to 7.00
25 | > 7.00 | CC(C)(C)C(=O)N1CCC(Oc2ccc(C(=O)NC[C@H](O)CN3CCc4ccccc4C3)cc2)CC1 [Compound 322] | 6.00 to 7.00
26 | > 7.00 | O=C(NC[C@H](O)CN1CCc2ccccc2C1)c1ccnc(OC2CCN(CC(F)(F)F)CC2)c1 [Compound 203] | 6.00 to 7.00
27 | > 7.00 | O=C(NC[C@H](O)CN1CCc2ccccc2C1)c1cc(NC2COC2)ncn1 [Compound 166, (S)—N-(3-(3,4-dihydroisoquinolin-2(1H)-yl)-2-hydroxypropyl)-6-(oxetan-3-ylamino)pyrimidine-4-carboxamide] | 6.00 to 7.00
28 | > 7.00 | O=C(NC[C@H](O)CN1CCc2ccccc2C1)c1cc2ccccc2[nH]1 [Compound 269] | 5.00 to 6.00
29 | > 7.00 | O=C(NCC(O)CN1CCc2ccccc2C1)c1cccc(NC2CCOCC2)n1 (stereo not drawn) [Compound 73] | 5.00 to 6.00
30 | > 7.00 | CC(=O)N1CCC(Oc2cccc(C(=O)NCC(O)CN3CCc4ccccc4C3)c2)C1 (stereo not drawn) [Compound 136] | 5.00 to 6.00
31 | > 7.00 | O=C(NC[C@H](O)CN1CCc2ccccc2C1)c1cccc(OC2CCOCC2)c1 [Compound 82] | 6.00 to 7.00
32 | 6.00 to 7.00 | O=C(NC[C@H](O)CN1CCc2ccccc2C1)c1cncc(OC2CCNCC2)c1 [Compound 260] | < 4.70
33 | > 7.00 | CN(CCNc1cc(C(=O)NC[C@H](O)CN2CCc3ccccc3C2)ccn1)S(C)(=O)=O [Compound 262] | 6.00 to 7.00
34 | > 7.00 | CS(=O)(=O)N1CC[C@H](Nc2cccc(C(=O)NC[C@H](O)CN3CCc4ccccc4C3)c2)C1 [Compound 268] | 6.00 to 7.00
35 | 6.00 to 7.00 | Cn1nc(C(=O)NCC(O)CN2CCc3ccccc3C2)cc1NC1CCOCC1 (stereo not drawn) [Compound 312] | 5.00 to 6.00
36 | > 7.00 | COc1ccc2cc(C(=O)NC[C@H](O)CN3CCc4ccccc4C3)ccc2c1 [Compound 251] | 5.00 to 6.00
37 | 6.00 to 7.00 | O=C(NC[C@H](O)CN1CCc2ccccc2C1)c1cc(OC2CCNCC2)ncn1 [Compound 258] | 4.30 to 5.00
38 | 6.00 to 7.00 | O=C(NC[C@H](O)CN1CCc2ccccc2C1)c1cc(OC2CCN(CC(F)(F)F)CC2)ncn1 [Compound 285] | 5.00 to 6.00
39 | > 7.00 | O=C(NCC(O)CN1CCc2ccccc2C1)c1ccc(NC2CCN(CC(F)(F)F)CC2)cc1 (stereo not drawn) [Compound 128] | 5.00 to 6.00
40 | 6.00 to 7.00 | COc1ccc(NC2CCOCC2)cc1C(=O)NCC(O)CN1CCc2ccccc2C1 (stereo not drawn) [Compound 77] | 5.00 to 6.00
41 | > 7.00 | O=C(NCC(O)CN1CCc2ccccc2C1)c1cccc(OC2CCN(CC(F)(F)F)C2)c1 (stereo not drawn) [Compound 137] | 5.00 to 6.00
42 | > 7.00 | Cc1ccc(NC2COC2)cc1C(=O)NCC(O)CN1CCc2ccccc2C1 (stereo not drawn) [Compound 97] | 5.00 to 6.00
43 | > 7.00 | CC(=O)N1CC[C@@H](Nc2cccc(C(=O)NC[C@H](O)CN3CCc4ccccc4C3)c2)C1 [Compound 293] | > 7.00
44 | 6.00 to 7.00 | O=C(NC[C@H](O)CN1CCc2ccccc2C1)c1cncc(NC2COC2)c1 [Compound 299] | 4.30 to 5.00
45 | 6.00 to 7.00 | CN1CCCC1c1cccc(C(=O)NCC(O)CN2CCc3ccccc3C2)c1 (stereo not drawn) [Compound 34, N-(3-(3,4-dihydroisoquinolin-2(1H)-yl)-2-hydroxypropyl)-3-(1-methylpyrrolidin-2-yl) benzamide] | 4.30 to 5.00
